# How the values were obtained:
# Type in all cases: in vivo
# [1] = system: ryegrass, Italian (Italian ryegrass, Lolium multiflorum); test: Test C postemergence, Italian ryegrass; details: for Ryegrass, Italian plant response rating: visual injury, 0 to 100 scale (0 no effect, 100 complete control); for Plant response rating (0 to 100 scale), Ryegrass, Italian: 0 is no effect, 100 is complete control
# Procedure, shortened: (§1)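 Visual injury rating, 0 (no effect) to 100 (complete control), versus untreated controls after 10 or 12 days in the greenhouse. Compounds were formulated in non-phytotoxic solvent plus surfactant and applied either as a directed soil spray at sowing or onto emerged one- to two-leaf plants.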
# [2] = system: blackgrass (Alopecurus myosuroides); test: Test C postemergence, blackgrass; details: 125 g ai/ha Postemergence; 0 is no effect, 100 is complete control
# [3] = system: kochia (Bassia scoparia); test: Test C preemergence, kochia; details: 0 is no effect, 100 is complete control
# Procedure, shortened: as §1
Compound,"Ryegrass, Italian plant response rating ([1]; 31 g ai/ha Postemergence)","Plant response rating (0 to 100 scale), Ryegrass, Italian ([1]; 125 g ai/ha Postemergence)","Plant response rating (0 to 100 scale), Blackgrass [2]","Plant response rating (0 to 100 scale), Kochia ([3]; 31 g ai/ha Preemergence)","Plant response rating (0 to 100 scale), Kochia ([3]; 125 g ai/ha Preemergence)","Ryegrass, Italian plant response rating ([1]; 125 g ai/ha Postemergence)"
CC(=O)N(c1cc(N2CCC(OC3CC3)C2=O)c(C)cc1C)S(=O)(=O)C(F)(F)F (centres unmarked) [Compound 17],60,90,80,80,100,
COC(=O)N(c1cc(N2CCC(OC3CC3)C2=O)c(C)cc1C)S(=O)(=O)C(F)(F)F (centres unmarked) [Compound 16],0,0,0,0,0,
C=C(C)COC1CCN(c2cc(NS(=O)(=O)C(F)(F)F)c(C)cc2C)C1=O (centres unmarked) [Compound 59],10,,,80,100,70
Cc1c(NS(=O)(=O)C(F)(F)F)cc(N2CCC(OC3CCC3)C2=O)c(C)c1C (centres unmarked) [Compound 45],0,,,90,100,50
C=CCO/N=C1\CCN(c2cc(NS(=O)(=O)C(F)(F)F)c(C)cc2C)C1=O [Compound 11],0,30,90,80,100,
CC(=O)N(c1cc(N2CCC(OC3CC3)C2=O)c(C)cc1Cl)S(=O)(=O)C(F)(F)F (centres unmarked) [Compound 38],30,,70,100,100,70
"C#CCO/N=C1\CCN(c2cc(NS(=O)(=O)C(F)(F)F)c(C)cc2C)C1=O [Compound 13, N-[2,4-dimethyl-5-[2-oxo-3-[(2-propyn-1-yloxy)imino]-1-pyrrolidinyl]phenyl]-1,1,1-trifluoromethanesulfonamide]",60,60,90,100,100,
"CO/N=C1\CCN(c2cc(NS(=O)(=O)C(F)(F)F)c(C)cc2C)C1=O [Compound 9, 1,1,1-trifluoro-N-[5-[3-(methoxyimino)-2-oxo-1-pyrrolidinyl]-2,4-dimethylphenyl]methanesulfonamide]",50,80,90,100,100,
Cc1c(NS(=O)(=O)C(F)(F)F)cc(N2CCC(OCC3CC3)C2=O)c(C)c1F (centres unmarked) [Compound 63],0,,,90,100,10
Cc1cc(C)c(N(COC(=O)C(C)(C)C)S(=O)(=O)C(F)(F)F)cc1N1CCC(OCC2CC2)C1=O (centres unmarked) [Compound 53],0,,,0,50,70
Cc1cc(C)c(N2CCC(OCC3CC3)C2=O)cc1NS(=O)(=O)C(F)(F)F (centres unmarked) [Compound 22],70,80,90,90,100,
Cc1cc(C)c(N2CCC(OCC3CCCC3)C2=O)cc1NS(=O)(=O)C(F)(F)F (centres unmarked) [Compound 57],20,,,60,80,60
CCOC(=O)N(c1cc(N2CCC(OC3CC3)C2=O)c(C)cc1C)S(=O)(=O)C(F)(F)F (centres unmarked) [Compound 19],0,50,40,0,70,
"Cc1cc(C)c(N2CCC(OC3CC3)C2=O)cc1NS(=O)(=O)C(F)(F)F (single isomer, unassigned) [Compound 30]",90,,90,90,100,100
Cc1c(N2CCC(OC3CCC3)C2=O)cc(N(C(=O)OCC(C)C)S(=O)(=O)C(F)(F)F)c(C)c1C (centres unmarked) [Compound 48],40,,,10,90,60
Cc1c(N2CCC(OC3CC3)C2=O)cc(N(C(=O)OCC(C)C)S(=O)(=O)C(F)(F)F)c(C)c1C (centres unmarked) [Compound 50],50,,,20,100,90
Cc1cc(C)c(N(COC(=O)C(C)(C)C)S(=O)(=O)C(F)(F)F)cc1N1CCC(OCC2CCC2)C1=O (centres unmarked) [Compound 56],0,,,0,70,60
